Experimental data published in article PMC8286840, “Identifying SARS-CoV-2 antiviral compounds by screening for small molecule inhibitors of Nsp3 papain-like protease” (Biochemical Journal, 2021).
Structures can show the parent of a compound that is named as a salt. Where two headings read alike, the source gives them in different places. Where a SMILES comes first, the peptide text is derived from it. [ ]: non-standard residue; d: D form. Dolaproine = CO[C@@H]([C@@H]1CCCN1)[C@@H](C)C(=O)O; Dil = CC[C@H](C)[C@H](NC)[C@@H](CC(=O)O)OC; NMeV = CN[C@H](C(=O)O)C(C)C

Key:
[1] = molecular target: T1, SARS-CoV-2 PLpro (nsp3 1564–1878) (Severe acute respiratory syndrome coronavirus 2, UniProt P0DTD1); test: biochemical; set-up: FRET-quenched peptide (Pro3) cleavage by PLpro, 10 min pre-incubation, slope over 20 min, normalised to no-compound control; conditions: read-out: % of control remaining
[2] = molecular target: T1, SARS-CoV-2 PLpro (nsp3 1564–1878); test: biochemical; set-up: FRET-quenched peptide (Pro3) cleavage by PLpro, 10 min pre-incubation, slope over 20 min, normalised to no-compound control; conditions: read-out: % of control remaining; remark: listed apart in the source
Experimental: The plates were organized with columns 3–22 containing the compounds; the remaining columns were used for reaction controls including substrate only and substrate with enzyme but no compound (Figure 3Aii). The PLpro enzyme was pre-incubated with the compounds for 10 min, and then the reaction was initiated by the addition of substrate. […] We incubated the inhibitors with PLpro before the enzymatic reaction so that the slow-binding inhibitors will not be missed out [21]. […] Fluorescence was read on a Spark multimode microplate reader (Tecan) with an excitation wavelength at 330 nm and emission wavelength at 420 nm. […] An amount of 5 µl of the enzyme was pre-incubated with compounds for 10 min before the addition of 15 µl substrate. Fluorescence was monitored at 2 min for 20 min with 3 min intervals giving a total of seven readings.

COc1cccc(CNc2ccc(S(=O)(=O)Nc3nc4ccccc4s3)cc2)c1O [ML355]
remaining activity at 1.25 µM ([1]; Well no.=7648, low concentration screen): 97.9%
remaining activity at 3.75 µM ([2]; Well no.=7648, high concentration screen): 96.7%

COc1cc(N)c(Cl)cc1C(=O)OCCN1CCCCC1 [ML 10302]
remaining activity at 1.25 µM ([1]; Well no.=5486, low concentration screen): 98.8%
remaining activity at 3.75 µM ([2]; Well no.=5486, high concentration screen): 100%

O=S(=O)(c1cccc2c(I)cccc12)N1CCCNCC1 [ML-7, Hydrochloride]
remaining activity at 1.25 µM ([1]; Well no.=2491, low concentration screen): 103%
remaining activity at 3.75 µM ([2]; Well no.=2491, high concentration screen): 103%

Cc1ccc(C)c(OCCn2cc(C(=O)O)c3ccccc32)c1 [ML-098]
remaining activity at 1.25 µM [1]: 98.4%
remaining activity at 3.75 µM [2]: 97.6%

CCCC(=O)Nc1cccc(NC(=O)c2ccccc2Br)c1 [ML-161]
remaining activity at 1.25 µM ([1]; Well no.=4845, low concentration screen): 95%
remaining activity at 3.75 µM ([2]; Well no.=4845, high concentration screen): 93%

CC(C)C[C@H](NC(=O)CNC(=O)c1cc(Cl)ccc1Cl)B(O)O [MLN2238]
remaining activity at 1.25 µM ([1]; Well no.=4808, low concentration screen): 96.1%
remaining activity at 3.75 µM ([2]; Well no.=4808, high concentration screen): 97.1%

O=C(O)c1ccc(Nc2ncc3c(n2)-c2ccc(Cl)cc2C(c2c(F)cccc2F)=NC3)cc1 [MLN8054]
remaining activity at 1.25 µM ([1]; Well no.=4659, low concentration screen): 105%
remaining activity at 3.75 µM ([2]; Well no.=4659, high concentration screen): 98.1%

CC(C)C[C@H](NC(=O)CNC(=O)c1cc(Cl)ccc1Cl)B1OC(=O)C(CC(=O)O)(CC(=O)O)O1 [MLN9708]
remaining activity at 1.25 µM ([1]; Well no.=4810, low concentration screen): 101%
remaining activity at 3.75 µM ([2]; Well no.=4810, high concentration screen): 103%

CC[C@H](C)[C@@H]([C@@H](CC(=O)N1CCC[C@H]1[C@H](OC)[C@@H](C)C(=O)N[C@@H](Cc1ccccc1)C(=O)O)OC)N(C)C(=O)[C@@H](NC(=O)[C@@H](NC)C(C)C)C(C)C [MMAF (Hydrochloride)] (H-[NMeV]V[Dil][Dolaproine]F-OH)
remaining activity at 1.25 µM ([1]; Well no.=7650, low concentration screen): 89.6%
remaining activity at 3.75 µM ([2]; Well no.=7650, high concentration screen): 89.5%

CC[C@H](C)[C@@H]([C@@H](CC(=O)N1CCC[C@H]1[C@H](OC)[C@@H](C)C(=O)N[C@@H](Cc1ccccc1)C(=O)OC)OC)N(C)C(=O)[C@@H](NC(=O)[C@@H](NC)C(C)C)C(C)C [MMAF-OMe] (H-[NMeV]V[Dil][Dolaproine]F-OMe)
remaining activity at 1.25 µM ([1]; Well no.=7600, low concentration screen): 101%
remaining activity at 3.75 µM ([2]; Well no.=7600, high concentration screen): 97.1%

O/N=C/c1cc[n+](C[n+]2ccc(/C=N/O)cc2)cc1 [MMB-4]
remaining activity at 1.25 µM [1]: 95.4%
remaining activity at 3.75 µM [2]: 93.7%

S=C(NCc1ccc2c(c1)OCO2)N1CCN(c2ncnc3c2oc2ccccc23)CC1 [MP-470]
remaining activity at 1.25 µM ([1]; Well no.=2745, low concentration screen): 103%
remaining activity at 3.75 µM ([2]; Well no.=2745, high concentration screen): 104%

Cc1cccc(C#Cc2ccccc2)n1 [MPEP (Hydrochloride)]
remaining activity at 1.25 µM ([1]; Well no.=8541, low concentration screen): 96.2%
remaining activity at 3.75 µM ([2]; Well no.=8541, high concentration screen): 90.4%

CC(C)N(CCCCOCC(=O)O)c1cnc(-c2ccccc2)c(-c2ccccc2)n1 [MRE-269]
remaining activity at 1.25 µM ([1]; Well no.=7719, low concentration screen): 107%
remaining activity at 3.75 µM ([2]; Well no.=7719, high concentration screen): 105%

CCCOC(=O)c1c(-c2ccccc2)nc(CC)c(C(=O)SCC)c1CCC [MRS 1523]
remaining activity at 1.25 µM ([1]; Well no.=1064, low concentration screen): 95.3%
remaining activity at 3.75 µM ([2]; Well no.=1064, high concentration screen): 94.2%

CCCn1c(=O)c2[nH]c(-c3ccc(OCC(=O)Nc4ccc(C#N)cc4)cc3)nc2n(CCC)c1=O [MRS 1754]
remaining activity at 1.25 µM ([1]; Well no.=788, low concentration screen): 97.4%
remaining activity at 1.25 µM ([1]; Well no.=8407, low concentration screen): 101%
remaining activity at 3.75 µM ([2]; Well no.=788, high concentration screen): 97.6%
remaining activity at 3.75 µM ([2]; Well no.=8407, high concentration screen): 95.8%

C#CCN1C(C)=C(C(=O)OC)C(c2cccc([N+](=O)[O-])c2)C(C(=O)OCC)=C1C (centres unmarked) [MRS 1845]
remaining activity at 1.25 µM ([1]; Well no.=968, low concentration screen): 95.8%
remaining activity at 3.75 µM ([2]; Well no.=968, high concentration screen): 96.5%

Cc1nc(N=Nc2ccc(C(=O)O)cc2)c(COP(=O)(O)O)c(C=O)c1O [MRS 2159]
remaining activity at 1.25 µM ([1]; Well no.=1030, low concentration screen): 102%
remaining activity at 3.75 µM ([2]; Well no.=1030, high concentration screen): 101%

CNc1ncnc2c1ncn2[C@H]1C[C@H](OP(=O)(O)O)[C@@H](COP(=O)(O)O)O1 [MRS 2179]
remaining activity at 1.25 µM ([1]; Well no.=926, low concentration screen): 98.6%
remaining activity at 3.75 µM ([2]; Well no.=926, high concentration screen): 103%

S=C=Nc1cccc(NC(=S)NCCCCNC(=S)Nc2cccc(N=C=S)c2)c1 [MRS 2578]
remaining activity at 1.25 µM ([1]; Well no.=4797, low concentration screen): 93.1%
remaining activity at 1.25 µM ([1]; Well no.=7275, low concentration screen): 95%
remaining activity at 3.75 µM ([2]; Well no.=7275, high concentration screen): 95.2%

CCCn1c(=O)c2[nH]c(-c3ccc(OCC(=O)Nc4ccc(C(C)=O)cc4)cc3)nc2n(CCC)c1=O [MRS-1706]
remaining activity at 1.25 µM ([1]; Well no.=8511, low concentration screen): 102%
remaining activity at 3.75 µM ([2]; Well no.=8511, high concentration screen): 105%

Cc1cc(/N=N/c2ccc(S(=O)(=O)Nc3ccccn3)cc2)c(N)cc1O [MS436]
remaining activity at 1.25 µM ([1]; Well no.=7590, low concentration screen): 93.3%
remaining activity at 3.75 µM ([2]; Well no.=7590, high concentration screen): 96.8%

c1cnc(NCc2ccc(CNc3ncccn3)cc2)nc1 [MSX-122]
remaining activity at 1.25 µM ([1]; Well no.=8075, low concentration screen): 97%
remaining activity at 1.25 µM ([1]; Well no.=8397, low concentration screen): 89.1%
remaining activity at 3.75 µM ([2]; Well no.=8075, high concentration screen): 84.8%
remaining activity at 3.75 µM ([2]; Well no.=8397, high concentration screen): 90.4%

Cc1nc(C#Cc2cccnc2)cs1 [MTEP (hydrochloride)]
remaining activity at 1.25 µM ([1]; Well no.=7283, low concentration screen): 92.5%
remaining activity at 3.75 µM ([2]; Well no.=7283, high concentration screen): 94.9%

Cc1ccc(NS(=O)(=O)c2ccc3c(c2)C2C=CCC2C(c2ccc(C(=O)O)cc2)N3)cc1C (centres unmarked) [MX69]
remaining activity at 1.25 µM ([1]; Well no.=6822, low concentration screen): 97.6%
remaining activity at 1.25 µM ([1]; Well no.=7984, low concentration screen): 100%
remaining activity at 3.75 µM ([2]; Well no.=6822, high concentration screen): 94.1%
remaining activity at 3.75 µM ([2]; Well no.=7984, high concentration screen): 98.5%

CCCNS(=O)(=O)Nc1ncnc(OCCOc2ncc(Br)cn2)c1-c1ccc(Br)cc1 [Macitentan]
remaining activity at 1.25 µM ([1]; Well no.=4830, low concentration screen): 97.6%
remaining activity at 1.25 µM ([1]; Well no.=8253, low concentration screen): 97.3%
remaining activity at 3.75 µM ([2]; Well no.=4830, high concentration screen): 97.8%
remaining activity at 3.75 µM ([2]; Well no.=8253, high concentration screen): 90.3%

C[C@H]1[C@H](C)CC[C@]2(C(=O)O)CC[C@]3(C)C(=CC[C@@H]4[C@@]5(C)C[C@@H](O)[C@H](O)[C@@](C)(CO)[C@@H]5[C@H](O)C[C@]43C)[C@H]12 [Madecassic acid]
remaining activity at 1.25 µM ([1]; Well no.=3657, low concentration screen): 104%
remaining activity at 3.75 µM ([2]; Well no.=3657, high concentration screen): 104%

C=CCc1ccc(O)c(-c2cc(CC=C)ccc2O)c1 [Magnolol]
remaining activity at 1.25 µM ([1]; Well no.=3659, low concentration screen): 96.1%
remaining activity at 3.75 µM ([2]; Well no.=3659, high concentration screen): 98.1%

O=C(O)/C=C\C(=O)O [Maleic Acid]
remaining activity at 1.25 µM ([1]; Well no.=6593, low concentration screen): 100%
remaining activity at 3.75 µM ([2]; Well no.=6593, high concentration screen): 101%

O=C(O)CC(O)C(=O)O (centres unmarked) [Malic acid]
remaining activity at 1.25 µM ([1]; Well no.=6637, low concentration screen): 106%
remaining activity at 3.75 µM ([2]; Well no.=6637, high concentration screen): 110%

CC(C)OC(=O)C(C(=O)OC(C)C)=C1SC=CS1 [Malotilate]
remaining activity at 1.25 µM ([1]; Well no.=8884, low concentration screen): 85.8%
remaining activity at 3.75 µM ([2]; Well no.=8884, high concentration screen): 84.3%

COC(=O)C1=C(C)NC(C)=C(C(=O)OCCN2CCN(C(c3ccccc3)c3ccccc3)CC2)C1c1cccc([N+](=O)[O-])c1 (centres unmarked) [Manidipine]
remaining activity at 1.25 µM ([1]; Well no.=1788, low concentration screen): 104%
remaining activity at 3.75 µM ([2]; Well no.=1788, high concentration screen): 99.9%

C=C[C@](C)(O)CC[C@H]1C(=C)CC[C@H]2C(C)(C)CCC[C@]12C [Manool]
remaining activity at 1.25 µM ([1]; Well no.=3389, low concentration screen): 95.7%
remaining activity at 3.75 µM ([2]; Well no.=3389, high concentration screen): 98.7%

CNCCC[C@]12CC[C@H](c3ccccc31)c1ccccc12 [Maprotiline hydrochloride]
remaining activity at 1.25 µM ([1]; Well no.=845, low concentration screen): 103%
remaining activity at 3.75 µM ([2]; Well no.=845, high concentration screen): 103%
